Results from patent US8530465B2, “1, 2-disubstituted amido-anthraquinone derivatives, preparation method and application thereof” (National Defense Medical Center, priority 2010, dated 2013).

What was measured:
DU145 = experiment: NCI drug screen, DU145; assay type: cell-based, human; settings: DU145 (Prostate Cancer); 1.00E−5 Molar
Procedure: (§1) In brief, cellular protein levels were determined after 48 hours of drug exposure by sulforhodamine B colorimetry. Through the use of a time 0 cell control, the cell growth can be determined for each cell line thus allowing calculations of the 50% growth inhibitory concentration (GI50), the total growth inhibition (TGI), and the 50% lethal concentration (LC50). Comparison to plates not exposed to drug permits determination of concentration and times of exposure conferring 50% net growth inhibition (GI50), TGI, and 50% cell kill (LC50).
(§2) The screening system in United State National Cancer Institute (NCI) is consisted of 60 kinds of different human cancer cells, which can be used to assay the growth-inhibiting ability or cell toxicity of a compound against various cancer and tumor at a certain concentration.

NCI-H322M = experiment: NCI drug screen, NCI-H322M; assay type: cell-based, human; settings: NCI-H322M (Non-Small Cell Lung Cancer); 1.00E−5 Molar
Procedure: as §1, §2

MCF7 = experiment: NCI drug screen, MCF7; assay type: cell-based, human; settings: MCF7 (Breast Cancer); 1.00E−5 Molar
Procedure: as §1, §2

MDA-MB-231/ATCC = experiment: NCI drug screen, MDA-MB-231/ATCC; assay type: cell-based, human; settings: MDA-MB-231/ATCC (Breast Cancer); 1.00E−5 Molar
Procedure: as §1, §2

NCI-H23 = experiment: NCI drug screen, NCI-H23; assay type: cell-based, human; settings: NCI-H23 (Non-Small Cell Lung Cancer); 1.00E−5 Molar
Procedure: as §1, §2

NCI-H522 = experiment: NCI drug screen, NCI-H522; assay type: cell-based, human; settings: NCI-H522 (Non-Small Cell Lung Cancer); 1.00E−5 Molar
Procedure: as §1, §2

HCT-15 = experiment: NCI drug screen, HCT-15; assay type: cell-based, human; settings: HCT-15 (Colon Cancer); 1.00E−5 Molar
Procedure: as §1, §2

OVCAR-5 = experiment: NCI drug screen, OVCAR-5; assay type: cell-based, human; settings: OVCAR-5 (Ovarian Cancer); 1.00E−5 Molar
Procedure: as §1, §2

SNB-19 = experiment: NCI drug screen, SNB-19; assay type: cell-based, human; settings: SNB-19 (CNS Cancer); 1.00E−5 Molar
Procedure: as §1, §2

SK-MEL-28 = experiment: NCI drug screen, SK-MEL-28; assay type: cell-based, human; settings: SK-MEL-28 (Melanoma); 1.00E−5 Molar
Procedure: as §1, §2

SR = experiment: NCI drug screen, SR; assay type: cell-based, human; settings: SR (Leukemia); 1.00E−5 Molar
Procedure: as §1, §2

HS 578-T = experiment: NCI drug screen, HS 578-T; assay type: cell-based, human; settings: HS 578-T (Breast Cancer); 1.00E−5 Molar
Procedure: as §1, §2

RXF 393 = experiment: NCI drug screen, RXF 393; assay type: cell-based, human; settings: RXF 393 (Renal Cancer); 1.00E−5 Molar
Procedure: as §1, §2

NCI-H460 = experiment: NCI drug screen, NCI-H460; assay type: cell-based, human; settings: NCI-H460 (Non-Small Cell Lung Cancer); 1.00E−5 Molar
Procedure: as §1, §2

NCI-H226 = experiment: NCI drug screen, NCI-H226; assay type: cell-based, human; settings: NCI-H226 (Non-Small Cell Lung Cancer); 1.00E−5 Molar
Procedure: as §1, §2

NCI drug screen, A489 = assay type: cell-based, human; settings: A489 (Renal Cancer); 1.00E−5 Molar
Procedure: as §1, §2

hTERT = experiment: Secreted alkaline phosphatase (SEAP) assay, PhTERT-SEAP (H1299); assay type: cell-based; settings: Homo sapiens, 24 hours; for activity at 1 µM: NCI-H1299, Conc. 1 μM, read-out: Relative SEAP activity (%); for activity at 10 µM: NCI-H1299, Conc. 10 μM; for activity at 10 µM / activity at 100 µM: read-out: Relative SEAP activity (%) (converted); for activity at 100 µM: NCI-H1299, Conc. 100 μM
Procedure, shortened: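 Stable H1299 clone carrying the −3338 to +1 bp hTERT promoter upstream of SEAP; ~10^4 cells/well treated with varying drug amounts for 24 h at 37° C. Media heat-treated 65° C. 10 min, mixed with diethanolamine/MgCl2/L-homoarginine buffer and 12 mM p-nitrophenyl phosphate final; SEAP activity taken as rate of A405 increase.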

ACHN = experiment: NCI drug screen, ACHN; assay type: cell-based, human; settings: ACHN (Renal Cancer); 1.00E−5 Molar
Procedure: as §1, §2

SF-268 = experiment: NCI drug screen, SF-268; assay type: cell-based, human; settings: SF-268 (CNS Cancer); 1.00E−5 Molar
Procedure: as §1, §2

PC-3 = experiment: NCI drug screen, PC-3; assay type: cell-based, human; settings: PC-3 (Prostate Cancer); 1.00E−5 Molar
Procedure: as §1, §2

LOX IMVI = experiment: NCI drug screen, LOX IMVI; assay type: cell-based, human; settings: LOX IMVI (Melanoma); 1.00E−5 Molar
Procedure: as §1, §2

T-47D = experiment: NCI drug screen, T-47D; assay type: cell-based, human; settings: T-47D (Breast Cancer); 1.00E−5 Molar
Procedure: as §1, §2

HT29 = experiment: NCI drug screen, HT29; assay type: cell-based, human; settings: HT29 (Colon Cancer); 1.00E−5 Molar
Procedure: as §1, §2

K562 = experiment: NCI drug screen, K562; assay type: cell-based, human; settings: K562 (Leukemia); 1.00E−5 Molar
Procedure: as §1, §2

SNB-75 = experiment: NCI drug screen, SNB-75; assay type: cell-based, human; settings: SNB-75 (CNS Cancer); 1.00E−5 Molar
Procedure: as §1, §2

NCI/ADR-RES = experiment: NCI drug screen, NCI/ADR-RES; assay type: cell-based, human; settings: for Growth Percent: NCI/ADR-RES (Ovarian Cancer), 1.00E−5 Molar; for drug-resistance against adriamycin (ADR): human multiple drug-resistant cell NCI/ADR-RES
Procedure: as §1, §2

Cc1ccc(C(=O)Nc2ccc3c(c2NC(=O)c2ccc(C)cc2)C(=O)c2ccccc2C3=O)cc1 [CC-04, 1,2-bis-(4-methylbenzamido)-anthraquinone]
Growth Percent (DU145): 95.93%
Growth Percent (NCI-H322M): 97.74%
Growth Percent (MCF7): 71.71%
Growth Percent (MDA-MB-231/ATCC): 93.29%
Growth Percent (NCI-H23): 90.57%
Growth Percent (NCI-H522): 72.05%
Growth Percent (HCT-15): 102.44%
Growth Percent (OVCAR-5): 110.18%
Growth Percent (SNB-19): 103.91%
Growth Percent (SK-MEL-28): 99.46%
Growth Percent (SR): 87.69%
Growth Percent (HS 578-T): 105.96%
Growth Percent (RXF 393): 88.25%
Growth Percent (NCI-H460): 88.62%
Growth Percent (NCI-H226): 91.14%
Growth Percent (NCI drug screen, A489): 124.08%
activity at 1 µM (hTERT): 108 ± 9.03%
activity at 10 µM (hTERT): 97.1%
activity at 100 µM (hTERT): 30.9%
Growth Percent (ACHN): 112.43%
Growth Percent (SF-268): 98.91%
Growth Percent (PC-3): 82.91%
Growth Percent (LOX IMVI): 84.41%
Growth Percent (T-47D): 100.00%
Growth Percent (HT29): 99.39%
Growth Percent (K562): 107.54%
Growth Percent (SNB-75): 102.26%

Cc1ccc(C(=O)Nc2c(NC(=O)CCl)ccc3c2C(=O)c2ccccc2C3=O)cc1 [CC-12, 1-(4-methylbenzamido)-2-(chloroacetamido)-anthraquinone]
Growth Percent (DU145): −97.56%
Growth Percent (NCI-H322M): 95.05%
Growth Percent (MCF7): −79.28%
Growth Percent (MDA-MB-231/ATCC): 24.67%
Growth Percent (NCI-H23): −85.89%
Growth Percent (NCI-H522): 57.88%
Growth Percent (HCT-15): −50.22%
Growth Percent (OVCAR-5): 109.55%
Growth Percent (SNB-19): 88.40%
Growth Percent (SK-MEL-28): −31.94%
Growth Percent (SR): −19.84%
Growth Percent (NCI-H460): 95.65%
Growth Percent (NCI-H226): −25.30%
Growth Percent (NCI drug screen, A489): 123.78%
activity at 1 µM (hTERT): 110 ± 2.99%
activity at 10 µM (hTERT): -2.49%
activity at 100 µM (hTERT): -2.47%
Growth Percent (ACHN): 21.92%
Growth Percent (SF-268): 14.63%
Growth Percent (NCI/ADR-RES): 72.17%
drug-resistance against adriamycin (ADR) (NCI/ADR-RES): possessed drug-resistance against adriamycin (ADR)
Growth Percent (PC-3): 6.81%
Growth Percent (LOX IMVI): −57.05%
Growth Percent (T-47D): −49.46%
Growth Percent (HT29): 3.37%
Growth Percent (SNB-75): 6.31%

O=C(CCl)Nc1ccc2c(c1NC(=O)Cc1ccccc1)C(=O)c1ccccc1C2=O [CC-23, 1-[2-(phenyl)acetylamino]-2-(chloroacetamido)-anthraquinone]
Growth Percent (DU145): 85.83%
Growth Percent (NCI-H322M): 104.38%
Growth Percent (MCF7): 51.00%
Growth Percent (MDA-MB-231/ATCC): 82.04%
Growth Percent (NCI-H23): 64.75%
Growth Percent (NCI-H522): 43.37%
Growth Percent (HCT-15): 68.55%
Growth Percent (OVCAR-5): 119.04%
Growth Percent (SNB-19): 124.27%
Growth Percent (SK-MEL-28): 88.68%
Growth Percent (SR): −31.25%
Growth Percent (HS 578-T): 66.65%
Growth Percent (NCI-H460): 104.50%
Growth Percent (NCI-H226): 80.49%
Growth Percent (NCI drug screen, A489): 91.79%
activity at 1 µM (hTERT): 84.8 ± 3.12%
activity at 10 µM (hTERT): 9.49%
activity at 100 µM (hTERT): 7.43%
Growth Percent (ACHN): 79.64%
Growth Percent (SF-268): 80.14%
Growth Percent (NCI/ADR-RES): 86.87%
drug-resistance against adriamycin (ADR) (NCI/ADR-RES): possessed drug-resistance against adriamycin (ADR)
Growth Percent (LOX IMVI): 36.29%
Growth Percent (HT29): 88.84%
Growth Percent (SNB-75): 109.14%

Cc1ccc(C(=O)Nc2c(NC(=O)CN3CCCC3)ccc3c2C(=O)c2ccccc2C3=O)cc1 [CC-38, 1-(4-methylbenzamido)-2-[2-(tetrahydro-1H-1-pyrrolyl)acetylamino]-anthra quinone]
Growth Percent (DU145): 91.52%
Growth Percent (NCI-H322M): 82.50%
Growth Percent (MCF7): 70.79%
Growth Percent (MDA-MB-231/ATCC): 73.34%
Growth Percent (NCI-H23): 73.29%
Growth Percent (NCI-H522): 103.02%
Growth Percent (HCT-15): 73.22%
Growth Percent (OVCAR-5): 102.31%
Growth Percent (SNB-19): 108.22%
Growth Percent (SK-MEL-28): 92.18%
Growth Percent (HS 578-T): 69.39%
Growth Percent (RXF 393): 63.80%
Growth Percent (NCI-H460): 61.05%
Growth Percent (NCI-H226): 90.22%
Growth Percent (NCI drug screen, A489): 68.12%
activity at 1 µM (hTERT): 81.7 ± 4.8%
activity at 10 µM (hTERT): 59.1%
activity at 100 µM (hTERT): 3.93%
Growth Percent (ACHN): 82.23%
Growth Percent (SF-268): 86.17%
Growth Percent (NCI/ADR-RES): 50.86%
Growth Percent (PC-3): 75.00%
Growth Percent (LOX IMVI): 80.62%
Growth Percent (T-47D): 44.33%
Growth Percent (HT29): 31.34%
Growth Percent (K562): 40.86%
Growth Percent (SNB-75): 66.03%

Cc1ccc(C(=O)Nc2c(NC(=O)CN3CCN(C)CC3)ccc3c2C(=O)c2ccccc2C3=O)cc1 [CC-43, 1-(4-methylbenzamido)-2-[2-(4-methylpiperazino)acetylamino]-anthraquinone]
Growth Percent (DU145): 82.12%
Growth Percent (NCI-H322M): 72.60%
Growth Percent (MCF7): 31.79%
Growth Percent (MDA-MB-231/ATCC): 37.00%
Growth Percent (NCI-H23): 89.52%
Growth Percent (NCI-H522): 88.21%
Growth Percent (HCT-15): 27.47%
Growth Percent (OVCAR-5): 106.66%
Growth Percent (SNB-19): 68.75%
Growth Percent (SK-MEL-28): −57.56%
Growth Percent (SR): −43.70%
Growth Percent (HS 578-T): 87.29%
Growth Percent (RXF 393): 68.84%
Growth Percent (NCI-H460): 37.47%
Growth Percent (NCI-H226): 93.87%
Growth Percent (NCI drug screen, A489): 67.36%
activity at 1 µM (hTERT): 77.4 ± 1.5%
activity at 10 µM (hTERT): 13.4%
activity at 100 µM (hTERT): 3.15%
Growth Percent (ACHN): 49.87%
Growth Percent (SF-268): 59.11%
Growth Percent (NCI/ADR-RES): 66.74%
drug-resistance against adriamycin (ADR) (NCI/ADR-RES): possessed drug-resistance against adriamycin (ADR)
Growth Percent (PC-3): 84.75%
Growth Percent (LOX IMVI): 1.24%
Growth Percent (T-47D): 52.62%
Growth Percent (HT29): 3.69%
Growth Percent (K562): −4.52%
Growth Percent (SNB-75): 82.17%
